ChEMBL document CHEMBL4828738, “Design, synthesis and evaluation of novel 5-phenylthiophene derivatives as potent fungicidal of Candida albicans and antifungal reagents of fluconazole-resistant fungi” (Eur J Med Chem, 2021)
Converted amounts (≈) assume the structure as drawn.

Key:
[1] = system: Nakaseomyces glabratus; experiment: Antifungal activity against Candida glabrata assessed as fungal growth inhibition by CLSI protocol based method; format: functional
[2] = system: Cryptococcus neoformans; experiment: Antifungal activity against Cryptococcus neoformans CGMCC2.3161 assessed as fungal growth inhibition by CLSI protocol based method; format: functional
[3] = system: Candida tropicalis; experiment: Antifungal activity against Candida tropicalis CGMCC 2.3739 assessed as fungal growth inhibition by CLSI protocol based method; format: functional
[4] = system: Pichia kudriavzevii; experiment: Antifungal activity against Candida krusei GIM2.1 assessed as fungal growth inhibition by CLSI protocol based method; format: functional
[5] = system: Candida albicans; experiment: Antifungal activity against Candida albicans ATCC SC5314 assessed as fungal growth inhibition by CLSI protocol based method; format: functional
[6] = system: Candida parapsilosis; experiment: Antifungal activity against Candida parapsilosis GIM2.190 assessed as fungal growth inhibition by CLSI protocol based method; format: functional; conditions: Lodderomyces parapsilosis
[7] = system: Candida albicans; experiment: Antifungal activity against Candida albicans CPCC400616 assessed as fungal growth inhibition by CLSI protocol based method; format: functional
[8] = system: Candida albicans; experiment: Antifungal activity against fluconazole-resistant Candida albicans 311 assessed as fungal growth inhibition by CLSI protocol based method
[9] = system: Candida albicans; experiment: Antifungal activity against fluconazole-resistant Candida albicans 904 assessed as fungal growth inhibition by CLSI protocol based method
[10] = system: Candida albicans; experiment: Antifungal activity against fluconazole-resistant Candida albicans 901 assessed as fungal growth inhibition by CLSI protocol based method
[11] = system: Candida albicans; experiment: Antifungal activity against fluconazole-resistant Candida albicans 632 assessed as fungal growth inhibition by CLSI protocol based method
[12] = system: Candida albicans; experiment: Antifungal activity against fluconazole-resistant Candida albicans 100 assessed as fungal growth inhibition by CLSI protocol based method
[13] = system: Candida albicans; experiment: Antifungal activity against fluconazole-resistant Candida albicans 103 assessed as fungal growth inhibition by CLSI protocol based method

SMILES | MIC [1] [µg/mL] | MIC [2] [µg/mL] | MIC [3] [µg/mL] | MIC [4] [µg/mL] | MIC [5] [µg/mL] | MIC [6] [µg/mL] | MIC [7] [µg/mL] | MIC [8] [µg/mL] | MIC [9] [µg/mL] | MIC [10] [µg/mL] | MIC [11] [µg/mL] | MIC [12] [µg/mL] | MIC [13] [µg/mL]
O=C(NC(Cn1ccnc1)C(=O)c1ccccc1)c1ccc(-c2ccccc2Cl)s1 (stereo unspecified) | > 64 | > 64 | > 64 | > 64 | > 64 | > 64 | > 64 | – | – | – | – | – | –
O=C(NC(Cn1ccnc1)C(=O)c1ccccc1)c1ccc(-c2ccccc2)o1 (stereo unspecified) | > 64 | > 64 | > 64 | > 64 | 16 (≈ 41.5 µM) | > 64 | 16 (≈ 41.5 µM) | – | – | – | – | – | –
O=C(NC(Cn1ccnc1)C(=O)c1ccc(OC(F)(F)F)cc1)c1ccc(-c2ccc(Cl)cc2)s1 (stereo unspecified) | > 64 | > 64 | > 64 | > 64 | 32 (≈ 61.5 µM) | > 64 | 32 (≈ 61.5 µM) | – | – | – | – | – | –
O=C(NC(Cn1ccnc1)C(=O)c1ccccc1F)c1ccc(-c2ccc(Cl)cc2)s1 (stereo unspecified) | > 64 | 2 (≈ 4.41 µM) | > 64 | 1 (≈ 2.2 µM) | 0.06 (≈ 0.132 µM) | > 64 | 0.06 (≈ 0.132 µM) | 8 (≈ 17.6 µM) | > 64 | 2 (≈ 4.41 µM) | > 64 | > 64 | 4 (≈ 8.81 µM)
O=C(NC(Cn1ccnc1)C(=O)c1ccccc1)c1cnc(-c2ccccc2)o1 (stereo unspecified) | > 64 | > 64 | > 64 | > 64 | 32 (≈ 82.8 µM) | > 64 | 64 (≈ 166 µM) | – | – | – | – | – | –
O=C(NC(Cn1ccnc1)C(=O)c1cccc(Cl)c1)c1ccc(-c2ccc(Cl)cc2)s1 (stereo unspecified) | 0.5 (≈ 1.06 µM) | > 64 | 1 (≈ 2.13 µM) | > 64 | < 0.03 | 0.5 (≈ 1.06 µM) | 0.25 (≈ 0.531 µM) | 4 (≈ 8.5 µM) | > 64 | 8 (≈ 17 µM) | > 64 | 2 (≈ 4.25 µM) | 4 (≈ 8.5 µM)
O=C(NC(Cn1ccnc1)C(=O)c1ccccc1)c1noc2c1CCc1ccccc1-2 (stereo unspecified) | 16 (≈ 38.8 µM) | 16 (≈ 38.8 µM) | 4 (≈ 9.7 µM) | > 64 | 8 (≈ 19.4 µM) | 32 (≈ 77.6 µM) | 8 (≈ 19.4 µM) | – | – | – | – | – | –
O=C(NC(Cn1ccnc1)C(=O)c1ccccc1)c1ccc(-c2ccc(F)cc2)s1 (stereo unspecified) | > 64 | > 64 | 32 (≈ 76.3 µM) | > 64 | 1 (≈ 2.38 µM) | > 64 | 32 (≈ 76.3 µM) | – | – | – | – | – | –
O=C(NC(Cn1ccnc1)C(=O)c1ccccc1)c1ccc(-c2ccsc2)cc1 (stereo unspecified) | > 64 | 8 (≈ 19.9 µM) | 2 (≈ 4.98 µM) | 16 (≈ 39.9 µM) | 1 (≈ 2.49 µM) | > 64 | 2 (≈ 4.98 µM) | – | – | – | – | – | –
O=C(NC(Cn1ccnc1)C(=O)c1ccc(F)cc1F)c1ccc(-c2ccc(Cl)cc2)s1 (stereo unspecified) | > 64 | 2 (≈ 4.24 µM) | > 64 | > 64 | 0.5 (≈ 1.06 µM) | > 64 | > 64 | – | – | – | – | – | –
CCOc1ccc(-c2ccc(C(=O)NC(Cn3ccnc3)C(=O)c3ccccc3)s2)cc1 (stereo unspecified) | > 64 | > 64 | > 64 | > 64 | > 64 | > 64 | > 64 | – | – | – | – | – | –
O=C(NC(Cn1ccnc1)C(=O)c1ccccc1)c1ccc(-c2ccc(Cl)cc2Cl)s1 (stereo unspecified) | > 64 | > 64 | > 64 | > 64 | > 64 | > 64 | > 64 | – | – | – | – | – | –
O=C(NC(Cn1ccnc1)C(=O)c1ccccc1)c1ccc(-c2cccc(F)c2)s1 (stereo unspecified) | > 64 | > 64 | > 64 | > 64 | 8 (≈ 19.1 µM) | > 64 | 64 (≈ 153 µM) | – | – | – | – | – | –
O=C(NC(Cn1ccnc1)C(=O)c1ccccc1)c1ccc(N2CCN(c3ccccc3)CC2)cc1 (stereo unspecified) | > 64 | > 64 | > 64 | > 64 | > 64 | > 64 | > 64 | – | – | – | – | – | –
O=C(NC(Cn1ccnc1)C(=O)c1ccccc1)c1ccc(-c2ccccc2)s1 (stereo unspecified) | 2 (≈ 4.98 µM) | 8 (≈ 19.9 µM) | 1 (≈ 2.49 µM) | 32 (≈ 79.7 µM) | 0.5 (≈ 1.25 µM) | 0.5 (≈ 1.25 µM) | 0.5 (≈ 1.25 µM) | 8 (≈ 19.9 µM) | 4 (≈ 9.96 µM) | 4 (≈ 9.96 µM) | 8 (≈ 19.9 µM) | 4 (≈ 9.96 µM) | 4 (≈ 9.96 µM)
O=C(NC(Cn1ccnc1)C(=O)c1ccccc1)c1ccc(-c2ccc(F)cc2F)s1 (stereo unspecified) | > 64 | > 64 | > 64 | > 64 | 8 (≈ 18.3 µM) | > 64 | > 64 | – | – | – | – | – | –
N#Cc1ccc(-c2ccc(C(=O)NC(Cn3ccnc3)C(=O)c3ccccc3)s2)cc1 (stereo unspecified) | > 64 | > 64 | > 64 | > 64 | > 64 | > 64 | > 64 | – | – | – | – | – | –
Cc1ccc(-c2ccc(C(=O)NC(Cn3ccnc3)C(=O)c3ccccc3)s2)cc1 (stereo unspecified) | > 64 | > 64 | 2 (≈ 4.81 µM) | > 64 | 0.125 (≈ 0.301 µM) | 8 (≈ 19.3 µM) | 1 (≈ 2.41 µM) | – | – | – | – | – | –
O=C(NC(Cn1ccnc1)C(=O)c1ccccc1)c1nc2ccc(Br)cc2s1 (stereo unspecified) | > 64 | > 64 | > 64 | > 64 | 32 (≈ 70.3 µM) | > 64 | > 64 | – | – | – | – | – | –
O=C(NC(Cn1ccnc1)C(=O)c1ccccc1)c1ccc2ccccc2c1 (stereo unspecified) | > 64 | 32 (≈ 86.6 µM) | 0.5 (≈ 1.35 µM) | > 64 | 0.5 (≈ 1.35 µM) | > 64 | 2 (≈ 5.41 µM) | – | – | – | – | – | –
O=C(NC(Cn1ccnc1)C(=O)c1ccccc1)c1cc2ccccc2o1 (stereo unspecified) | > 64 | > 64 | > 64 | > 64 | > 64 | > 64 | > 64 | – | – | – | – | – | –
O=C(NC(Cn1ccnc1)C(=O)c1ccccc1)c1ccc(-c2ccc(OC(F)(F)F)cc2)s1 (stereo unspecified) | > 64 | > 64 | 32 (≈ 65.9 µM) | > 64 | 0.5 (≈ 1.03 µM) | > 64 | 16 (≈ 33 µM) | – | – | – | – | – | –
O=C(NC(Cn1ccnc1)C(=O)c1ccccc1)c1cc2ccccc2s1 (stereo unspecified) | > 64 | > 64 | > 64 | > 64 | > 64 | > 64 | > 64 | – | – | – | – | – | –
O=C(NC(Cn1ccnc1)C(=O)c1ccccc1)c1ccc(-c2cccc(Cl)c2)s1 (stereo unspecified) | > 64 | > 64 | 32 (≈ 73.4 µM) | > 64 | 16 (≈ 36.7 µM) | > 64 | 32 (≈ 73.4 µM) | – | – | – | – | – | –
